In US6908908B2, “Biologically active 4H-benzo [1,4] oxazin-3-ones” (Ortho-McNeil Pharmaceutical, Inc., priority 2000, dated 2005):

Target: T1, PPAR γ (Homo sapiens, UniProt P37231)
T1 construct: Following the challenge of the preadipocytes, cells may be lysed with lysis buffer; endogenous in cells; host or cells: preadipocytes
T1 sequence (P37231 1-505): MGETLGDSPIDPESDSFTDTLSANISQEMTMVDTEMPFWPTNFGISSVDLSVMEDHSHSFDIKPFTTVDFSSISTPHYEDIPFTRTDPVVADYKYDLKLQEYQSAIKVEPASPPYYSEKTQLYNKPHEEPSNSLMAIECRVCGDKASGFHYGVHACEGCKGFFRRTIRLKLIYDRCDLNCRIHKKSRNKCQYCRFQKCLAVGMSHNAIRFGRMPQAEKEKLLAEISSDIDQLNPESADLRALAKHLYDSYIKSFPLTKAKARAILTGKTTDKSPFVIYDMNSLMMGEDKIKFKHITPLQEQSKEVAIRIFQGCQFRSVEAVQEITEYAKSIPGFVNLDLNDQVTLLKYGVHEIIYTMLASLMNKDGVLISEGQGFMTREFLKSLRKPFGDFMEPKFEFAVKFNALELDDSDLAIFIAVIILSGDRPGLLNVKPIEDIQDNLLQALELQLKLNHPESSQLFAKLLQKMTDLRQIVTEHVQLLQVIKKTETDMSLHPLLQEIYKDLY
Test: aP2 Assay for Agonist (induction of aP2 mRNA production); as to Agonist Intrinsic Activity: test concentration or dose not given here
Format: cell-based
Conditions: fold increase over vehicle in induction of aP2 mRNA production; for PPAR γ Agonist Intrinsic Activity: Table 3 (stereoisomers)

Row | Structure (SMILES) | Agonist Intrinsic Activity (Table 1) | other results
1 | CC(=O)NC(C)CCCCN1C(=O)C(CCOc2ccccc2CC(=O)O)Oc2ccccc21 (stereo not drawn) [Compound 85] | 24 | 
2 | NC(=O)CCCCCN1C(=O)C(CCOc2ccccc2CC(=O)O)Oc2ccccc21 (stereo not drawn) [Compound 98, Benzeneacetic acid, 2-[2-[4-(6-amino-6-oxohexyl)-3,4-dihydro-3-oxo-2H-1,4-benzoxazin-2-yl]ethoxy]-] | 28 | 
3 | CC(C)(CCCCN1C(=O)C(CCOc2ccccc2CC(=O)O)Oc2ccccc21)C(=O)O (stereo not drawn) [Compound 102] | 4.1 | 
4 | O=C(O)Cc1ccccc1OCCC1Oc2ccccc2N(CCCCCCCF)C1=O (stereo not drawn) [Compound 110] | 64.5 | 
5 | O=C(O)Cc1ccccc1OCCC1Oc2ccccc2N(CCCCCCCO)C1=O (stereo not drawn) [Compound 112] | 74.5 | 
6 | COC(=O)Cc1ccccc1OCCC1Oc2ccccc2N(c2ccc(Cl)c(Cl)c2)C1=O (stereo not drawn) [Compound 118] | 0.9 | 
7 | O=C(O)Cc1ccccc1OCCC1Oc2ccccc2N(c2ccc(Cl)c(Cl)c2)C1=O (stereo not drawn) [Compound 119] | 22.8 | 
8 | CCCCCCN1C(=O)C(CCOc2ccc(SC(C)(C)C(=O)O)cc2)Oc2ccccc21 (stereo not drawn) [Compound 121] | 16.13 | 
9 | CC(=O)NCCCCCCN1C(=O)C(CCOc2ccccc2CC(=O)O)Oc2ccccc21 (stereo not drawn) [Compound 125] | 10.78 | 
10 | CS(=O)(=O)NCCCCCCN1C(=O)C(CCOc2ccccc2CC(=O)O)Oc2ccccc21 (stereo not drawn) [Compound 126, Benzeneacetic acid, 2-[2-[3,4-dihydro-3-oxo-4-(6-methanesulfonamidohexyl)-2H-1,4-benzoxazin-2-yl]ethoxy]-] | 12.96 | 
11 | CCCCCCN1C(=O)C(C)(CCOc2ccccc2CC(=O)O)Oc2ccccc21 (stereo not drawn) [Compound 128, Benzeneacetic acid, 2-[2-(4-hexyl-3,4-dihydro-2-methyl-3-oxo-2H-1,4-benzoxazin-2-yl)ethoxy]-] |  | Agonist Intrinsic Activity (Table 2): 2.5
12 | CCCCCCN1C(=O)C(CCOc2ccc(OC(C)(C)C(=O)O)cc2)Oc2ccccc21 (stereo not drawn) [Compound 129] |  | PPAR γ Agonist Intrinsic Activity: 12.62
13 | CCCCCCN1C(=O)[C@](C)(CCOc2ccccc2CC(=O)O)Oc2ccccc21 [Compound 130] |  | PPAR γ Agonist Intrinsic Activity: 91.3
14 | CC1(CCOc2ccccc2CC(=O)O)Oc2ccccc2N(CCCCCCF)C1=O (stereo not drawn) [Compound 131] |  | PPAR γ Agonist Intrinsic Activity: 36.4

More lines, main results first:

Row | Agonist Intrinsic Activity (Table 1) | Structure (SMILES) | other results
15 | 11.1 | CC(=O)CCCCN1C(=O)C(CCOc2ccccc2CC(=O)O)Oc2ccccc21 (stereo not drawn) [Compound 78, Benzeneacetic acid, 2-[2-[3,4-dihydro-3-oxo-4-(5-oxohexyl)-2H-1,4-benzoxazin-2-yl]ethoxy]-] | 
16 | 2.8 | CON=C(C)CCCCN1C(=O)C(CCOc2ccccc2CC(=O)O)Oc2ccccc21 (stereo not drawn) [Compound 80] | 
17 | 4.9 | CC(O)CCCCN1C(=O)C(CCOc2ccccc2CC(=O)O)Oc2ccccc21 (stereo not drawn) [Compound 82, Benzeneacetic acid, 2-[2-[3,4-dihydro-4-(5-hydroxyhexyl)-3-oxo-2H-1,4-benzoxazin-2-yl]ethoxy]-] | 
18 | 3.5 | CC(C)(O)CCCCN1C(=O)C(CCOc2ccccc2CC(=O)O)Oc2ccccc21 (stereo not drawn) [Compound 84] | 
19 | 37.9 | CC(F)(F)CCCCN1C(=O)C(CCOc2ccccc2CC(=O)O)Oc2ccccc21 (stereo not drawn) [Compound 87] | 
20 | 64.9 | O=C(O)Cc1ccccc1OCCC1Oc2ccccc2N(CCCCCCF)C1=O (stereo not drawn) [Compound 91, Benzeneacetic acid, 2-[2-[4-(6-fluorohexyl)-3,4-dihydro-3-oxo-2H-1,4-benzoxazin-2-yl]ethoxy]-] | 
21 | 36.9 | O=C(O)Cc1ccccc1OCCC1Oc2ccccc2N(CCCCCCO)C1=O (stereo not drawn) [Compound 95] | 
22 | 27.5 | CC(C)(CN)CCCCN1C(=O)C(CCOc2ccccc2CC(=O)O)Oc2ccccc21 (stereo not drawn) [Compound 96] | 
23 | 3.0 | O=C(O)CCCCCN1C(=O)C(CCOc2ccccc2CC(=O)O)Oc2ccccc21 (stereo not drawn) [Compound 101, 2H-1,4-Benzoxazine-4-hexanoic acid, 2-[2-[2-(carboxymethyl)phenoxy]ethyl]-3,4-dihydro-3-oxo-] | 
24 | 26.5 | CC(C)(C#N)CCCCN1C(=O)C(CCOc2ccccc2CC(=O)O)Oc2ccccc21 (stereo not drawn) [Compound 104] | 
25 | 40.8 | CC(F)(F)CCCCCN1C(=O)C(CCOc2ccccc2CC(=O)O)Oc2ccccc21 (stereo not drawn) [Compound 106] | 
26 | 37.3 | CC(=O)CCCCCN1C(=O)C(CCOc2ccccc2CC(=O)O)Oc2ccccc21 (stereo not drawn) [Compound 108] | 
27 | 29.1 | O=C(O)Cc1ccccc1OCCC1Oc2ccccc2N(CCCCCF)C1=O (stereo not drawn) [Compound 113] | 
28 | 50.7 | COCCCCN1C(=O)C(CCOc2ccccc2CC(=O)O)Oc2ccccc21 (stereo not drawn) [Compound 114] | 
29 | 40.9 | CCOCCCN1C(=O)C(CCOc2ccccc2CC(=O)O)Oc2ccccc21 (stereo not drawn) [Compound 115] | 
30 | 4.0 | CCCSCCN1C(=O)C(CCOc2ccccc2CC(=O)O)Oc2ccccc21 (stereo not drawn) [Compound 116] | 
31 | 45.9 | CCCOCCN1C(=O)C(CCOc2ccccc2CC(=O)O)Oc2ccccc21 (stereo not drawn) [Compound 117] | 
32 | 40.83 | CCCNC(=O)CN1C(=O)C(CCOc2ccccc2CC(=O)O)Oc2ccccc21 (stereo not drawn) [Compound 122] | 
33 | 4.00 | CNC(=O)CCCN1C(=O)C(CCOc2ccccc2CC(=O)O)Oc2ccccc21 (stereo not drawn) [Compound 124] | 
